Test results as given in patent US9408854B2, “Methods and systems for pharmacogenomic treatment of cardiovascular conditions” (ROSTAQUO S.P.A., priority 2009, dated 2016).

Tested on: hypertensive patients
Assay: Pharmacogenomic study: change of office systolic blood pressure (DSBP5_0) after 5 weeks of rostafuroxin vs placebo, by genotype
Assay type: in vivo, human
Conditions: for response (average blood pressure change): individuals carrying all core SNPs; for Delta DSBP5_0: therapy vs placebo
Procedure: A pharmacogenomic study was performed to ascertain the effect of genetic variations on an individual response to rostafuroxin. The sample for the pharmacogenomic study consisted of 342 individuals that were genotyped with the Human1M array from Illumina using Human1M Duo CHIP genotyping Bead Chip according to procedure described in [Ref. 10, 11, 12]. Among the individuals, 169 were administered the placebo treatment and 173 the active drug (rostafuroxin) in the first period (5 weeks) with demographics as in [Ref 13]. In particular, patients were randomized to one of the following oral doses of rostafuroxin: 0.05, 0.15, 0.5, 1.5, or 5 mg/day for 5 weeks. Each dose had to be compared to a placebo in a crossover design.
For the above sample of individuals a genetic association analysis, was performed to associate the phenotype of the tested individuals with the SNPs detected in the individuals. The selected phenotype of interest was the blood pressure response. The SNPs selected for detection were the 1111170 SNPs on autosomal chromosomes of the individual.
The genetic analysis was performed according to a quantitative genetic association design where the phenotype of interest is a quantitative variable (QT), and the variables (factors) affecting the distribution of the phenotype of interest are SNPs, therapy (placebo, rostafuroxin) and the SNP*therapy interaction.
In particular, the quantitative phenotype selected for the statistical analyses was the difference in mmHg between the office Systolic Blood Pressure (SBP) at the end of first treatment period (SBP_5) and the office Systolic Blood Pressure at baseline after one month of run-in (SBP_0) and is herein also identified as DSBP5_0. The selected QT phenotype and other factors affecting distribution of the phenotype of interest were then analyzed according to the following quantitative trait interaction test Phenotype=SNP+therapy+SNP*therapy as illustrated in further details below.
In particular, in Table 2 the descriptive statistics of DSBP5_0 for the entire sample and for the patients treated with placebo and rostafuroxin are listed. The rather modest basal level of SBP can be explained in view of the recruitment of patients with “mild” hypertension (SBP range 140-179 mmHg), required by the inclusion of a placebo arm.
Those SNPs were further selected to identify the genotypes with the largest response to rostafuroxin compared to placebo by performing a Statistical ANOVA analysis using STATA software in placebo and rostafuroxin with DSBP5_0 as dependent variable and the candidate significant SNPs as independent variables. In particular, to select the genotypes of the interactions between two SNPs with the largest response to rostafuroxin compared to placebo, the Applicants performed an ANOVA statistics in placebo and rostafuroxin with DSBP5_0 as dependent variable and the interaction s between SNPs as independent variables. The Applicants report an example of this procedure in FIG. 5: interaction between rs8899 and rs4678. The Applicants selected the interaction between the genotype AA of rs8899 and the genotype BB of rs4678 because it presents the greatest remarkable decrement in the therapy group and not in the placebo group.
In particular, to select the genotypes with the largest response to rostafuroxin compared to placebo, the Applicants performed an ANOVA statistics (oneway) in placebo and rostafuroxin with DSBP5_0 as dependent variable and the significant SNPs as independent variables.

[1] = GWS SNP rs9361863 (LOC728360) genotype 2
[2] = GWS SNP rs9893372 (ATP2A3) genotype 3
[3] = GWS SNP rs10159569 (SH3PXD2A) genotype 1
[4] = GWS SNP rs10493940 (SLC30A7) genotype 2
[5] = GWS SNP rs10493940 (SLC30A7) genotype 3
[6] = GWS SNP rs12513375 (TTC29) genotype 3
[7] = GWS SNP rs12996186 (ARL5A) genotype 2
[8] = GWS SNP rs16877182 (THSD7A) genotype 2
[9] = GWS SNP rs16893522 (FAM46A) genotype 1
[10] = GWS SNP rs16893522 (FAM46A) genotype 2
[11] = GWS SNP rs17414954 (VCAM1) genotype 2
[12] = individuals carrying the genetic variations
[13] = interaction ADD2 rs4984 CC x TOP rs10502933 CT
[14] = interaction HSD19 rs947130 GG x NEDD4L rs4309483 AA
[15] = interaction HSD19 rs947130 GG x NKAIN3 rs4739037 GA
[16] = interaction LSS2 rs914247 AA x ADD1 rs4961 GT + TT
[17] = interaction LSS2 rs914247 AA x WNK1 rs880054 AG + GG
[18] = interaction LSS2 rs914247 GA + AA x MDR2 rs1045642 CC
[19] = interaction MDR2 rs1045642 TT x AGTR1 rs2131127 CC
[20] = interaction MDR2 rs1045642 TT x HSD18 rs10923835 AT + TT

## C[C@]12CC[C@H](O)C[C@H]1CC[C@@H]1[C@@H]2CC[C@]2(C)[C@@](O)(c3ccoc3)CC[C@]12O [rostafuroxin, 17β-(3-furyl)-5β-androstane-3β,14β,17α-triol]
GWS SNP rs9361863 (LOC728360) genotype 1
  DSBP5_0 therapy: −15 mmHg
[1]
  DELTA delta Therapy placebo: 8.833 mmHg
  DSBP5_0 therapy: −13.48 mmHg
[2]
  DELTA delta Therapy placebo: 4.434 mmHg
  DSBP5_0 therapy: −10.91 mmHg
[3]
  DELTA delta Therapy placebo: 10.63 mmHg
  DSBP5_0 therapy: −13.17 mmHg
[4]
  DELTA delta Therapy placebo: 5.95 mmHg
  DSBP5_0 therapy: −12.13 mmHg
[5]
  DELTA delta Therapy placebo: 28.95 mmHg
  DSBP5_0 therapy: −25 mmHg
[6]
  DELTA delta Therapy placebo: 15.93 mmHg
  DSBP5_0 therapy: −19.18 mmHg
[7]
  DELTA delta Therapy placebo: 17.96 mmHg
  DSBP5_0 therapy: −22.79 mmHg
[8]
  DELTA delta Therapy placebo: 18.85 mmHg
  DSBP5_0 therapy: −21.67 mmHg
[9]
  DELTA delta Therapy placebo: 27.03 mmHg
  DSBP5_0 therapy: −22.43 mmHg
[10]
  DELTA delta Therapy placebo: 2.874 mmHg
  DSBP5_0 therapy: −1.138 mmHg
[11]
  DELTA delta Therapy placebo: 7.158 mmHg
  DSBP5_0 therapy: −13.03 mmHg
All never previously treated (NPT) patients on therapy (99 IDs), 5 weeks, no genotype selection
  Mean fall in blood pressure mmHg (DSBP5_0): −5.831 mmHg
Carriers rs914247 (LSS2) AA (CAND 1 SNP)
  DSBP5_0 therapy: −17 mmHg
Carriers rs2345088 TT (Illumina genotype 1), NPT patients, 5 weeks
  DSBP5_0 therapy: −30.5 mmHg
Carriers rs2461911 AA (Illumina genotype 1), NPT patients, 5 weeks
  DSBP5_0 therapy: −20.6 mmHg
Carriers rs5013093 TT (Illumina genotype 1), NPT patients, 5 weeks
  DSBP5_0 therapy: −20.49 mmHg
Carriers rs12513375 TT (Illumina genotype 3), NPT patients, 5 weeks
  DSBP5_0 therapy: −19.18 mmHg
Carriers rs16877182 C/T (Illumina genotype 2), NPT patients, 5 weeks
  DSBP5_0 therapy: −21.67 mmHg
Carriers rs16893522 AA (Illumina genotype 1), NPT patients, 5 weeks
  DSBP5_0 therapy: −22.43 mmHg
High dosages
  response (average blood pressure change): −15 mmHg
High doses (1.5; 5.0 mg/day), individuals carrying the genetic variations
  average decrease in systolic blood pressure: −12 mmHg
[12]
  average decrease in nightly blood pressure: ≥ 9 mmHg
  average decrease in office blood pressure: at least 15 mmHg
[13]
  DSBP50 ROSTAFUROXIN: .−19.21 mmHg
  Delta Rosta_placebo: 24.73 mmHg
[14]
  DSBP50 ROSTAFUROXIN: .−17.85 mmHg
  Delta Rosta_placebo: 28.15 mmHg
[15]
  DSBP50 ROSTAFUROXIN: .−18.18 mmHg
  Delta Rosta_placebo: 15.72 mmHg
[16]
  DSBP50 ROSTAFUROXIN: .−22.32 mmHg
  Delta Rosta_placebo: 27.49 mmHg
[17]
  DSBP50 ROSTAFUROXIN: .−16 mmHg
  Delta Rosta_placebo: 16.48 mmHg
[18]
  DSBP50 ROSTAFUROXIN: .−16.91 mmHg
  Delta Rosta_placebo: 12.96 mmHg
[19]
  DSBP50 ROSTAFUROXIN: .−16.9 mmHg
  Delta Rosta_placebo: 14.34 mmHg
[20]
  DSBP50 ROSTAFUROXIN: .−17.40 mmHg
  Delta Rosta_placebo: 17.30 mmHg
Low dosages
  response (average blood pressure change): −23 mmHg
Lower doses (0.05; 0.15; 0.5 mg/day), individuals carrying the genetic variations
  average decrease in systolic blood pressure: approximately 18 mmHg
Carriers rs2345088 TT (genotype 1)
  Delta DSBP5_0: 33.93, mmHg
Carriers rs2461911 AA (genotype 1)
  Delta DSBP5_0: 22.82, mmHg
Carriers rs5013093 TT (genotype 1)
  Delta DSBP5_0: 22.09, mmHg
Carriers rs12513375 TT (genotype 3)
  Delta DSBP5_0: 15.93, mmHg
Carriers rs16877182 C/T (genotype 2)
  Delta DSBP5_0: 18.85, mmHg
Carriers rs16893522 AA (genotype 1)
  Delta DSBP5_0: 27.03, mmHg
Treated individuals, trial results
  tolerability and quality of life: good tolerability and quality of life
